Measurements reported in PubChem BioAssay (NCI).
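Protocol summary: plate cells (96-well), add compound at 5 concentrations, incubate 48 h, interpolate endpoints linearly. GI50 is the concentration that inhibits growth by half. TGI marks complete inhibition of growth.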

Legend:
Assay in all cases: DTP human tumour cell line panel, 48 h
[1] = tested on: RPMI-8226 leukemia
[2] = tested on: K-562 leukemia
[3] = tested on: UACC-62 melanoma
[4] = tested on: HOP-62 NSCLC
[5] = tested on: HOP-92 NSCLC
[6] = tested on: PC-3 prostate
[7] = tested on: KM20L2 colon
[8] = tested on: COLO 205 colon
[9] = tested on: EKVX NSCLC
[10] = tested on: SNB-78 CNS

`NC(=O)/C=C/c1c[nH]c2nccnc12` was tested, and the TGI [1] was greater than 100 µM, the TGI [2] was greater than 18 µM and the TGI [3] was 8.85 µM. The TGI [4] was 19.3 µM, the TGI [5] was greater than 28.8 µM and the TGI [6] was 26.1 µM. It also gave a TGI [7] of 1.35 µM, a TGI [8] of 3.27 µM and a TGI [9] of 24.7 µM.

With `N#CC1=C(N)Oc2c(ccc3cccnc23)C1c1ccccc1` (stereo not drawn) the GI50 [1] was 2.37 µM, the TGI [1] was 15.1 µM and the TGI [2] was greater than 100 µM. For the same molecule, the TGI [3] was 24.6 µM, the TGI [4] was greater than 22.9 µM and the TGI [5] was greater than 83.4 µM. It also gave a GI50 [6] of 2.8 µM, a TGI [6] greater than 100 µM and a TGI [8] of 13.2 µM. The TGI [9] was greater than 100 µM and the TGI [10] was 9.36 µM.

Molecule `CCN(CC)CCC(CNc1c(C)cnc2cc(Cl)ccc12)c1ccc(Cl)c(Cl)c1` (stereo not drawn) has a GI50 [1] of 2.15 µM, a TGI [1] of 6.49 µM and a GI50 [2] of 1.2 µM. It also gave a TGI [2] of 3.51 µM, a GI50 [3] of 2.18 µM and a TGI [3] of 4.77 µM. The GI50 [4] was 4.69 µM, the TGI [4] was 17.6 µM and the GI50 [5] was 1.96 µM. It also gave a TGI [5] of 8.03 µM, a GI50 [6] of 4.1 µM and a TGI [6] of 16.2 µM. It also gave a GI50 [8] of 1.55 µM, a TGI [8] of 3.24 µM and a GI50 [9] of 3.21 µM. For the same molecule, the TGI [9] was 14.2 µM.

`COc1cc2ccnc(-c3n[nH]c4cc(OC)c(OC)cc34)c2cc1OC` showed a TGI [1] greater than 100 µM, a TGI [2] greater than 100 µM and a TGI [3] greater than 100 µM. For the same molecule, the TGI [4] was greater than 100 µM, the TGI [5] was greater than 100 µM and the TGI [7] was greater than 100 µM. It also gave a TGI [8] greater than 100 µM and a TGI [9] greater than 100 µM.

`O=C(O)c1ccccc1C(=O)Nc1cc2c(cc1Br)-c1ccccc1C2=O` showed a TGI [1] greater than 100 µM, a TGI [2] greater than 100 µM and a TGI [3] greater than 100 µM. It also gave a TGI [4] greater than 100 µM, a TGI [5] greater than 100 µM and a TGI [6] greater than 100 µM. The TGI [8] was greater than 100 µM and the TGI [9] was greater than 100 µM.

With `Nc1nc(N)c2cc(S(=O)(=O)c3ccccc3)ccc2n1` the GI50 [1] was 6.04 µM, the TGI [1] was greater than 100 µM and the GI50 [2] was 0.339 µM. It also gave a TGI [2] greater than 100 µM, a GI50 [3] of 0.511 µM and a TGI [3] greater than 100 µM. For the same molecule, the GI50 [4] was 4.14 µM, the TGI [4] was greater than 100 µM and the GI50 [5] was 4.64 µM. The TGI [5] was 72.8 µM, the GI50 [6] was 0.838 µM and the TGI [6] was greater than 100 µM. For the same molecule, the GI50 [8] was 6.99 µM, the TGI [8] was greater than 100 µM and the GI50 [9] was 7.13 µM. It also gave a TGI [9] greater than 100 µM.

For `Cc1nc2sc(C(=O)Nc3cccc(Cl)c3C)c(N)c2cc1C(O)c1ccccc1` (stereo not drawn), the GI50 [1] was 0.0388 µM, the TGI [1] was 3.05 µM and the GI50 [2] was 0.0302 µM. It also gave a TGI [2] greater than 48.6 µM, a GI50 [3] of 0.087 µM and a TGI [3] of 12 µM. The GI50 [4] was 0.0497 µM, the TGI [4] was 16.1 µM and the GI50 [5] was 2.31 µM. For the same molecule, the TGI [5] was 14.2 µM, the GI50 [6] was 0.0439 µM and the TGI [6] was 24.4 µM. The GI50 [8] was 0.0667 µM, the TGI [8] was 1.37 µM and the GI50 [9] was 0.268 µM. For the same molecule, the TGI [9] was 21.4 µM.

`CSc1ccc(NC(=O)CCl)cc1` was tested, and the TGI [1] was greater than 10 µM, the TGI [2] was greater than 10 µM and the TGI [3] was 3.65 µM. It also gave a TGI [4] greater than 10 µM, a TGI [5] of 8.88 µM and a TGI [6] greater than 10 µM. It also gave a TGI [8] of 8.02 µM and a TGI [9] greater than 10 µM.

For `CC(=O)OCCC/C(=C/c1cc2ccccc2c2ccccc12)[N+](=O)[O-]`, the GI50 [1] was 1.27 µM, the TGI [1] was 5.74 µM and the GI50 [2] was 1.7 µM. It also gave a TGI [2] of 6.87 µM, a GI50 [3] of 1.54 µM and a TGI [3] of 3.1 µM. For the same molecule, the GI50 [4] was 1.91 µM, the TGI [4] was 3.5 µM and the GI50 [5] was 1.38 µM. For the same molecule, the TGI [5] was 3.7 µM, the GI50 [6] was 1.89 µM and the TGI [6] was 3.94 µM. For the same molecule, the GI50 [8] was 1.67 µM, the TGI [8] was 3.03 µM and the GI50 [9] was 1.42 µM. For the same molecule, the TGI [9] was 3.67 µM.
